What was measured:
[1] = Crystal; Adiabatic calorimetry
[2] = molar heat capacity at constant pressure; conditions: 101.33 kPa, Vacuum adiabatic calorimetry
[3] = Molar enthalpy of transition or fusion; conditions: Crystal; Adiabatic calorimetry

O=C(N[C@@H](Cc1ccccc1)C(=O)O)OCc1ccccc1 [((benzyloxy)carbonyl)-L-phenylalanine]
Conditions | Molar enthalpy of transition or fusion [kcal/mol] | Triple point temperature [K]
[1] | – | 359.48
[3] | 7.597 | –

[2]
Conditions | molar heat capacity at constant pressure [J/K/mol]
79.13 K, Crystal | 109.2
81.17 K, Crystal | 111.4
84.32 K, Crystal | 114.7
87.26 K, Crystal | 119.7
90.2 K, Crystal | 124.4
93.15 K, Crystal | 128
96.1 K, Crystal | 130.2
99.05 K, Crystal | 132.6
103.16 K, Crystal | 135.7
107.22 K, Crystal | 140.4
110.14 K, Crystal | 143.8
113.08 K, Crystal | 146.3
116.03 K, Crystal | 149.3
119 K, Crystal | 150.1
121.92 K, Crystal | 156.4
124.86 K, Crystal | 158.7
127.83 K, Crystal | 160.7
130.81 K, Crystal | 161.9
133.81 K, Crystal | 165.1
136.78 K, Crystal | 168.9
139.76 K, Crystal | 171.3
142.78 K, Crystal | 172.5
145.75 K, Crystal | 176.2
148.7 K, Crystal | 181.2
152.53 K, Crystal | 181.4
156.3 K, Crystal | 185.2
159.2 K, Crystal | 189.8
162.16 K, Crystal | 191.9
165.09 K, Crystal | 194.2
168.09 K, Crystal | 197.5
171.13 K, Crystal | 198.8
174.16 K, Crystal | 201.1
177.16 K, Crystal | 206.1
180.14 K, Crystal | 209.9
183.11 K, Crystal | 211.4
186.05 K, Crystal | 211.8
188.97 K, Crystal | 218.1
191.95 K, Crystal | 219.3
194.98 K, Crystal | 223
198 K, Crystal | 226.3
201 K, Crystal | 229.2
204.65 K, Crystal | 233.5
208.28 K, Crystal | 236.2
211.23 K, Crystal | 238.9
214.17 K, Crystal | 242
217.09 K, Crystal | 248.7
220 K, Crystal | 250.5
222.89 K, Crystal | 252.5
225.77 K, Crystal | 254.9
228.72 K, Crystal | 256.4
231.73 K, Crystal | 258
234.73 K, Crystal | 260.1
237.77 K, Crystal | 264.5
240.78 K, Crystal | 266.6
244.33 K, Crystal | 268.1
247.89 K, Crystal | 270.2
250.89 K, Crystal | 273.1
253.88 K, Crystal | 277.4
256.87 K, Crystal | 280.9
259.83 K, Crystal | 282.4
262.79 K, Crystal | 286.2
265.74 K, Crystal | 290.4
268.67 K, Crystal | 292.7
271.58 K, Crystal | 297.9
274.49 K, Crystal | 302.3
277.38 K, Crystal | 301.8
280.25 K, Crystal | 307.3
283.12 K, Crystal | 314.7
286.09 K, Crystal | 319.9
289.05 K, Crystal | 323.8
291.98 K, Crystal | 326.7
295.01 K, Crystal | 330.1
298.06 K, Crystal | 333
301.11 K, Crystal | 336.5
304.15 K, Crystal | 339.5
307.19 K, Crystal | 340.6
310.22 K, Crystal | 343.9
313.24 K, Crystal | 348.3
316.26 K, Crystal | 351.4
319.27 K, Crystal | 353.7
322.27 K, Crystal | 358.3
325.27 K, Crystal | 362.5
328.25 K, Crystal | 367.6
331.24 K, Crystal | 371.4
334.21 K, Crystal | 375.1
337.17 K, Crystal | 380.6
340.13 K, Crystal | 389.8
343.07 K, Crystal | 396.6
345.97 K, Crystal | 418.3
348.88 K, Crystal | 508.8
361.43 K, Liquid | 549.6
364.56 K, Liquid | 551.9
367.7 K, Liquid | 552.7
370.83 K, Liquid | 553.6
373.95 K, Liquid | 554.9
377.05 K, Liquid | 555.6
380.13 K, Liquid | 557.1
383.21 K, Liquid | 558.5
386.33 K, Liquid | 560.8
389.43 K, Liquid | 562.4
392.55 K, Liquid | 563.6
395.55 K, Liquid | 564.8

Source: the NIST ThermoML archive (doi:10.1021/je1004092)
